Measured values reported in patent US6362369B1, “Phthalic acid diamide derivatives fluorine-containing aniline compounds as starting material, agricultural and horticultural insecticides, and a method for application of the insecticides” (Nihon Nohyaku Co., Ltd., priority 1997, dated 2002).

The molecules below were run on diamondback moth (Plutella xylostella) (assay: Insecticidal effect on diamondback moth (Test Example 1)). Details: diamondback moth; judged by the criterion of Test Example 1.
Format: in vivo
Method: Insecticidal effect on diamondback moth (Plutella xylostella) Adult diamondback moths were released and allowed to oviposit on a Chinese cabbage seedling. […] After air-drying, it was allowed to stand in a room thermostated at 25° C. Six days after the immersion, the hatched insects were counted. The mortality was calculated according to the following equation and the insecticidal effect was judged according to the criterion shown below. The test was carried out with triplicate groups of 10 insects. [table]
For `Cc1cc(C(F)(F)C(F)(F)F)ccc1NC(=O)c1cccc(Cl)c1C(=O)NCC(O)c1ccccc1` (stereo not shown) [compound 1476], the “Insecticidal effect (Test Example 1), judged from mortality” value (“Insecticidal effect … from mortality” below) was “A (100)”.
With `CC(C)NC(=O)c1cccc(F)c1C(=O)Nc1ccc(C(F)(F)C(F)(F)F)cc1F` [compound 1515] the “Insecticidal effect … from mortality” value was “A (100)”.
`CC(C)NC(=O)c1c(I)cccc1C(=O)Nc1cccc(-c2csc(C(F)(F)F)n2)c1` [compound 1658] was tested, and the “Insecticidal effect … from mortality” value was “A (100)”.
In the case of `Cc1cc(-c2ccc(OC(F)(F)F)cc2)ccc1NC(=O)c1cccc(I)c1C(=O)NC(C)C` [compound 1521], the “Insecticidal effect … from mortality” value is reported as “A (100)”.
In the case of `CC(C)(C)NC(=O)c1c(I)cccc1C(=O)Nc1ccc2oc(C(F)(F)F)nc2c1Cl` [compound 1683], the “Insecticidal effect … from mortality” value is reported as “A (100)”.

Same assay, conditions: diamondback moth; judged by the mortality criterion of Test Example 1
With `Cc1cc(Cl)ccc1NC(=O)c1c(C(=O)NC(C)C)ccc(Br)c1Br` [compound 343] the “Insecticidal effect, Test Example 1” value was “A (100)”.
`CC(C)NC(=O)c1cccc(Cl)c1C(=O)Nc1ccc(C(F)(F)C(F)(F)C(F)(F)C(F)(F)F)cc1` [compound 199] was tested, and the “Insecticidal effect, Test Example 1” value was “A (100)”.
`CC(C)NC(=O)c1cccc(Cl)c1C(=O)Nc1ccc(SC(F)(F)C(F)F)cc1` [compound 203] was tested, and the “Insecticidal effect, Test Example 1” value was “A (100)”.

Same assay, conditions: diamondback moth; mortality judged by criterion of Test Example 1
For `Cc1cc(C(F)(F)C(F)(F)F)ccc1NC(=O)c1cccc(Cl)c1C(=O)N[C@@H](CO)c1ccccc1` [compound 1442], the “Insecticidal effect, Test Example 1” value was “A (100)”.
For `Cc1cc(OC(F)(F)F)ccc1NC(=O)c1ccc(F)c(Cl)c1C(=O)NC(C)(C)C` [compound 1260], the “Insecticidal effect, Test Example 1” value was “A (100)”.
In the case of `COc1ccc(CNC(=O)c2c(Cl)cccc2C(=O)Nc2ccc(C(F)(F)C(F)(F)F)cc2C)cc1` [compound 1347], the “Insecticidal effect, Test Example 1” value is reported as “A (100)”.
With `Cc1cc(C(F)(F)C(F)(F)F)ccc1NC(=O)c1c(Cl)cccc1C(=O)NC(C)c1ccccc1Cl` (stereo not shown) [compound 1363] the “Insecticidal effect, Test Example 1” value was “A (100)”.
`Cc1cc(C(F)(F)C(F)(F)F)ccc1NC(=O)c1c(I)cccc1C(=O)NC1CC1` [compound 1025] was tested, and the “Insecticidal effect, Test Example 1” value was “A (100)”.

Same assay, conditions: mortality judged according to the criterion shown in Test Example 1
`C=CCNC(=O)c1ccccc1C(=O)Nc1ccc(C(F)(F)F)cc1` [compound 865] was tested, and the “Insecticidal effect on diamondback moth (Test Example 1), judged grade” value (from here on “Insecticidal effect on diamondback moth”) was “A (100)”.
With `Cc1ccc(Cl)cc1NC(=O)c1cc([N+](=O)[O-])ccc1C(=O)NC(C)C` [compound 738] the “Insecticidal effect on diamondback moth” value was “D (79-50)”.
With `CCc1cc(I)ccc1NC(=O)c1cccc(I)c1C(=O)NC(C)C` [compound 919] the “Insecticidal effect on diamondback moth” value was “A (100)”.
With `CC(C)NC(=O)c1c(C(=O)Nc2cc(Cl)cc(Cl)c2)cccc1[N+](=O)[O-]` [compound 637] the “Insecticidal effect on diamondback moth” value was “A (100)”.
With `Cc1ccc(Cl)cc1NC(=O)c1cccc([N+](=O)[O-])c1C(=O)NC(C)c1ccccc1` (stereo not shown) [compound 878] the “Insecticidal effect on diamondback moth” value was “C (89-80)”.
`CC(C)NC(=O)c1c(C(=O)Nc2ccc(F)cc2)cccc1[N+](=O)[O-]` [compound 594] was tested, and the “Insecticidal effect on diamondback moth” value was “A (100)”.
`CC(C)NC(=O)c1c(C(=O)Nc2cccc(F)c2)cccc1[N+](=O)[O-]` [compound 593] was tested, and the “Insecticidal effect on diamondback moth” value was “A (100)”.
`CSc1ccc(NC(=O)c2cccc([N+](=O)[O-])c2C(=O)NC(C)C)c(C)c1C` [compound 720] was tested, and the “Insecticidal effect on diamondback moth” value was “A (100)”.
For `Cc1ccc(Cl)cc1NC(=O)c1cccc([N+](=O)[O-])c1C(=O)NC1CCCCC1` [compound 859], the “Insecticidal effect on diamondback moth” value was “D (79-50)”.
For `CC(C)NC(=O)c1c(C(=O)Nc2ccccc2C(F)(F)F)cccc1[N+](=O)[O-]` [compound 608], the “Insecticidal effect on diamondback moth” value was “A (100)”.
`CC(C)NC(=O)c1cccc(I)c1C(=O)Nc1ccc(C=C(Cl)C(F)(F)F)cc1` [compound 918] was tested, and the “Insecticidal effect on diamondback moth” value was “A (100)”.
For `CC(C)NC(=O)c1cccc(Cl)c1C(=O)Nc1ccc(C=C(Cl)C(F)(F)F)cc1` [compound 912], the “Insecticidal effect on diamondback moth” value was “A (100)”.
